Measured values reported in patent publication US11485987B2, “Methods for inducing bioorthogonal reactivity” (University of Delaware, priority 2015, dated 2022).

Columns and labels:
ferricytochrome C = assay: Background oxidation of DHTZ by ferricytochrome C; type: biochemical; details: ferricytochrome c two orders of magnitude higher concentration than APEX2
From the text: Superoxide has been reported to reduce ferricytochrome C Fe(III) to ferrocytochrome C Fe(II) and O2. Superoxide production during oxidation of DHTZ by APEX2 (SEQ ID NO:1) has been detected by following the reduction of ferricytochrome C Fe(III) to ferrocytochrome C Fe(II) (λmax=550 nm) by UV-Vis spectrometry (FIG. 11C-D). Two wavelengths, 325 nm for tetrazine formation and 550 nm for ferrocytochrome c formation, were followed where reduction of ferricytochrome C by the superoxide byproduct formed during DHTZ oxidation was observed. Addition of SOD stopped the formation of ferrocytochrome C, thus confirming that superoxide is formed during oxidation of DHTZ by APEX2 (SEQ ID NO:1). A stoichiometric background oxidation of DHTZ by ferricytochrome C was observed where the rate of the oxidation of 15 by ferricytochrome c was 2× slower than APEX2 (SEQ ID NO:1) at ferricytochrome c concentrations two orders of magnitude higher than APEX2 (SEQ ID NO:1). While oxidation of DHTZ by cytochrome C is not catalytic or feasible for intracellular applications, it does confirm that DHTZ undergoes two successive one-electron oxidations as cytochrome C cannot oxidize substrates by two-electron oxidations.
15 (10 μM) from stock solution was added to PBS containing 100 μM EDTA. Ferricytochrome C (60 μM) was dosed in after 10 seconds followed by addition of APEX2 (SEQ ID NO:1) ([…]). […]

[1] = molecular target: T1, horseradish peroxidase (HRP) (Armoracia rusticana, UniProt P00433); assay: Horseradish peroxidase (HRP) catalyzed oxidation of DHTz to tetrazine; type: biochemical; details: HRP 15 nM; for Rate of HRP Oxidation of 3a: first 10 seconds
T1 sequence (P00433 31-338): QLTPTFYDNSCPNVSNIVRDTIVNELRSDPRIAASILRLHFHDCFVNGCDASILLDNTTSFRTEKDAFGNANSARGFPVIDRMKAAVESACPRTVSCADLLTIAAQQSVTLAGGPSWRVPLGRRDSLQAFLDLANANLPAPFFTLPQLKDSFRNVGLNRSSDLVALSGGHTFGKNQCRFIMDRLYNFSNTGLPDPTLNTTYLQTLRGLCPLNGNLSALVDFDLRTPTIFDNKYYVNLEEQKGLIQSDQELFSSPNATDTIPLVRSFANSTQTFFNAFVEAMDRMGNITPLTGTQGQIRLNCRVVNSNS
Method: Upon addition of horseradish peroxidase (15 nM) the UV-vis spectrum was monitored every 10 seconds. With 50% conversion after 100 seconds, complete conversion of 3a to 4a is observed after 600 seconds, as evidenced by the decrease in the absorption at 292 nm and increase at 325 nm with an isosbestic point at 303 nm. Similar spectral changes are observed when 3a is electrochemically oxidized to 4a in aqueous solution, or when the oxidation of 3a to 4a is photocatalyzed by methylene blue. […] Methylene blue was considered a particularly attractive sensitizer due to its clinical relevance, low molecular weight, low toxicity, high solubility, and an absorption spectrum (λmax 665 nm) that extends to the near IR. Further, methylene blue has previously been explored for applications in photodynamic therapy based on oxidation of indole-3-acetic acid. Rose bengal (λmax 550 nm), used in a range of biomedical applications, was also identified as an excellent sensitizer. […] Methylene blue (4 μM) also catalyzed the conversion of 3a to 4a in the presence of ambient light, with 47% conversion noted after 2 h. […] The mechanism of photooxidation more likely involves electron transfer and is the subject of ongoing study.
As a complement to these photocatalyzed reactions, the inventors observed that HRP can efficiently catalyze the oxidation of 3a in the dark at low enzyme concentration (15 nM) (FIG. 4). While HRP typically requires H2O2 as the terminal oxidant, the addition of HRP to a peroxide-free solution of 3a (30 μM) in PBS led to the rapid formation of 4a (FIG. 4, panel B). […] Neither cytochrome c nor hemoglobin were effective catalysts of DHTz oxidation, with only slow conversion of 3a to 4a even with heme concentrations that were nearly 3 orders of magnitude higher than that used with HRP.
Solutions (1 mL) containing 3a (30 μm) in PBS buffer were prepared in a cuvette from stock solutions. Oxidation of 3a to 4a was monitored by recording absorbance at 325 nm every 10 seconds while either hydrogen peroxide (2 mM), HRP (15 nM) or both were added (FIG. 4, panel B). For the superoxide dismutase experiment, HRP (15 nM) was added followed by SOD (770 nM) 40 seconds later (FIG. 4, panel C). For the kinetics experiments, solutions (1 mL) containing 3a in PBS buffer with EDTA (2 mM) were prepared in the following concentrations of 3a: 9, 17, 34, 50, 83, 150 and 200 μM. The oxidation rate was determined by observing the conversion of 3a to 4a in the first 10 seconds after mixing in HRP (15 nM) and subtracting the background oxidation prior to the addition of HRP.

[2] = Electrochemical oxidation / cyclic voltammetry; type: physicochemical; details: phosphate buffer pH 7.0, vs Ag/AgCl reference
Method: Compound 3a has a maximum in the UV-vis spectrum at 292 nm, and 4a has a maximum at 325 nm with a less intense peak at 525 nm (FIG. 2). […] This isosbestic point was also conserved in the photocatalytic and enzymatic (FIG. 2) oxidations of 3a described below, and the spectroscopic changes at 292 and 325 nm were routinely used for monitoring reaction progress.
All electrochemistry was performed using a CHI-620D potentiostat/galvanostat. Cyclic voltammetry was performed using a standard three-electrode configuration. CV scans were recorded for quiescent solutions using a platinum disk working electrode (2.0 mm diameter CH Instruments) and a platinum wire auxiliary electrode. All potentials were measured against a Ag/AgCl reference electrode (CH Instruments, 1 M KCl). CV and DPV experiments were performed in a nitrogen saturated 0.1 M potassium phosphate (KH2PO4) buffered solution at pH 7.0. The concentration of the analyte was 1.0 mM for all experiments.

Row | Structure (SMILES) | rate of oxidation by ferricytochrome c slower than APEX2 (ferricytochrome C) | time to complete conversion of 3a to 4a [1] | conversion of 3a to 4a ([1]; after 100 seconds) | Rate of HRP Oxidation of 3a ([1]; [3a] 17 μM) | Rate of HRP Oxidation of 3a ([1]; [3a] 34 μM) | Rate of HRP Oxidation of 3a ([1]; [3a] 50 μM) | Rate of HRP Oxidation of 3a ([1]; [3a] 83 μM) | Rate of HRP Oxidation of 3a ([1]; [3a] 150 μM) | Rate of HRP Oxidation of 3a ([1]; [3a] 200 μM) | voltammogram peak (electrochemical oxidation) [2]
1 | O=C(O)CCCC(=O)Nc1ccc(C2=NNC(c3ccccn3)=NN2)nc1 [compound 15] | 2 × | – | – | – | – | – | – | – | – | –
2 | O=C(O)CCC(=O)Nc1ccc(C2=NNC(c3ccccn3)=NN2)nc1 [3a, 4-oxo-4-((6-(6-(pyridin-2-yl)-1,4-dihydro-1,2,4,5-tetrazin-3-yl)pyridin-3-yl)amino)butanoic Acid] | – | 600 s | 50% | 5.6e-08 M/s | 8.9e-08 M/s | 1.2e-07 M/s | 2.1e-07 M/s | 2.5e-07 M/s | 2.6e-07 M/s | 0.02 V
